Data on ten molecules can be found in patent publication US12492170B2, “Tetrahydro-1H-benzazepine compound as potassium channel modulator, preparation method and use thereof” (Shanghai Zhimeng Biopharma Inc., priority 2019, dated 2025).

Where two headings read alike, the source gives them in different places.

Data set [1] can be described thus: Safety research: single tail vein injection toxicity, maximum tolerated dose. Type of data set: in vivo. The settings on record: rat, in vivo, male SD rats, observed 48 hours. On the procedure:
(§1) Male Sprague-Dawley (SD) rats (SPF grade) were selected, divided into groups (3 rats per group), and administered via tail vein injection. Single administration, observed for 48 hours after administration. During the experiment, two cage-side observations and two detailed clinical observations were performed every day (observation was carried out before and 2 hours after the administration on the day of administration). Toxicity study animals were weighed and recorded every day, and food consumption of each animal for 24±1 hours was measured and recorded every day. At the end of the experiment (D3), euthanasia was performed by carbon dioxide inhalation anesthesia and the death of the animal was ensured by abdominal aorta/venous bleeding, and gross anatomy was performed and recorded.

The subject of data set [2] is SD rats. Described as above. The data set is classed as in vivo. The settings on record: male SD rats; for Maximum tolerated dose: observed 48 hours. On the procedure:
as §1

Data set [3] concerns the target T1, KCNQ2 potassium channel (Homo sapiens, UniProt O43526).
T1 construct: expressed in transfected cells; host or cells: CHO (CHO-KCNQ2, kept under G418 selection)
The experiment in a line: Potassium ion channel opener activity test (FDSS/μCELL detection, FluxOR). Type of data set: cell-based. On the procedure: After the digestion was completed, 7 mL culture medium (90% DMEM/F12+10% FBS+500 μg/mL G418) was added to neutralize, centrifugated for 3 minutes at 800 rpm, the supernatant was aspirated, then 5 mL culture medium was added to resuspend, and then the cells were counted.
Cell plating: the density to 3×10^4/well was adjusted according to the results of cell counting. After standing at room temperature for 30 minutes, placed in a 37° C. CO2 incubator and incubated overnight for 16-18 hours. The cell density reached about 80%.
Fluorescent dye incubation: discarded the cell culture medium, 80 μL/well loading buffer was added, and incubated in the dark at room temperature for 60 minutes.
Compound incubation: discarded the loading buffer, 80 μL/well prepared compound solution was added, incubated in the dark at room temperature for 20 minutes.
Fluorescence data collection: FDSS/μCELL instrument was used for real-time fluorescence signal recording, excitation wavelength was 480 nm, emission wavelength was 540 nm, recorded 1 times per second, recorded for 10 seconds after baseline and started to add 20 μL/well stimulation buffer, and then continued to record until the end of 180 seconds.
20 mM compound stock solution in DMSO was prepared, 10 μL of 20 mM compound stock solution was took into 20 μL DMSO solution, serially diluted 3 times to 8 intermediate concentrations; then the intermediate concentrations of the compound were took to the test buffer, diluted 200 times to get the final concentration to be tested, 80 μL was took and added to the test plate.
Each concentration set 3 duplicates.
The excitement effect of the compound was calculated by the following formula: […]

Data set [4] in a line: Pharmacokinetics and cerebral blood ratio after single administration in male ICR mice. Type of data set: in vivo. The settings on record: for AUC(0-inf) / AUC(0-t) / Cmax / half-life / Tmax: plasma. On the procedure: Take a healthy male ICR mouse (weight range: 18-22 grams in), grouping, 24 mice/group, and 3 mice/time point, fasting for more than 12 hours (only oral administration group), administration, blood was collected by cardiac puncture at time points 0.083 (only iv), 0.25, 0.5, 1, 2, 4, 6 (only po), 8 and 24 hours, at least 0.3 mL of whole blood was collected to EDTA-K2 anti-coagulation tube, within half an hour, plasma was taken by centrifuge (6000 revolutions, 8 minutes, 4° C.), frozen at −20° C. for later use. At the same time, brain tissue was collected in the oral group. After being rinsed with the physiological saline, the water absorbing paper was used to dry, weighed, and frozen at −20° C. for later use.

The mark [5] stands for this setting: CHO-KCNQ2 cells, fluorescence, FDSS/μCELL, read-out: EC50.

Consider `Cc1cc2c(c(C)c1NC(=O)CC(C)(C)C)CCN2Cc1ccc(F)cc1` [Compound B2, reference compound], for which the MTD at 48 h in data set [1] was 0.3 to 1 mg/kg. Further, the “toxicity” value in data set [2] (dose of 1 mg/kg) was “unacceptable toxicity”.

`Cc1cc2c(c(C)c1NC(=O)CC(C)(C)C)CCCCN2Cc1ccc(F)cc1` [Compound A1, N-(1-(4-fluorobenzyl)-6,8-dimethyl-2,3,4,5-tetrahydro-1H-benzazepine-7-yl)-3,3-dimethylbutanamide] displayed an EC50 in data set [3] of 83 nM. In addition, in data set [4] (gavage 1 mg/kg vs intravenous 0.3 mg/kg), the F is 56.9%. Also, in data set [4] (mouse, intravenous 0.3 mg/kg), the AUC(0-inf) amounted to 74 ng·h/mL, the AUC(0-t) is 73 ng·h/mL, the Cmax is 110 ng/mL and the half-life is 5.32 h. Besides, in data set [4] (mouse, po, gavage 1 mg/kg), the AUC(0-inf) stood at 139 ng·h/mL, the AUC(0-t) was determined as 138 ng·h/mL, the Cmax was determined as 94.4 ng/mL and the Tmax was 0.5 h. In data set [4] (mouse, po, gavage 1 mg/kg), the half-life was 5.42 h. For the same molecule, the Maximum tolerated dose result in data set [2] is listed as “MTD > 1 mg/kg”.

As to `Cc1cc2c(c(C)c1NC(=O)CC(C)(C)C)CCCCN2Cc1ccc(Cl)s1` [Compound A6, N-(1-((5-chlorothiophene-2-yl)methyl)-6,8-dimethyl-2,3,4,5-tetrahydro-1H-benzazepine-7-yl)-3,3-dimethylbutamide], the midpoint of the response in data set [3], the EC50, lay at 21 nM. Further, in data set [2], the Maximum tolerated dose entry is given as “MTD > 1 mg/kg”.

As to `CCCC(=O)Nc1c(C)cc2c(c1C)CCCCN2Cc1ccc(F)cc1` [Compound A3, N-(1-(4-fluorobenzyl)-6,8-dimethyl-2,3,4,5-tetrahydro-1H-benzazepine-7-yl)butanamide], the EC50 in data set [3] (setting [5]) is 271 nM.

Consider `Cc1cc2c(c(C)c1NC(=O)CCC1CCCC1)CCCCN2Cc1ccc(F)cc1` [Compound A2, 3-cyclopentyl-N-(1-(4-fluorobenzyl)-6,8-dimethyl-2,3,4,5-tetrahydro-1H-benzazepine-7-yl)propionamide], for which the midpoint of the response in data set [3], the EC50, lay at 37 nM. Also, in data set [2], the Maximum tolerated dose result is “MTD > 1 mg/kg”.

As to `Cc1cc2c(c(C)c1NC(=O)CC1(C)CC1)CCCCN2Cc1ccc(F)cc1` [Compound A5, N-(1-(4-fluorobenzyl)-6,8-dimethyl-2,3,4,5-tetrahydro-1H-benzazepine-7-yl)-2-(1-methylcyclopropyl)acetamide], the concentration for a half-maximal effect (EC50) in data set [3] (setting [5]) amounted to 133 nM.

Consider `C#CC(C)(C)CC(=O)Nc1c(C)cc2c(c1C)CCCCN2Cc1ccc(F)cc1` [Compound A4, N-(1-(4-fluorobenzyl)-6,8-dimethyl-2,3,4,5-tetrahydro-1H-benzazepine-7-yl)-3,3-dimethylpent-4-ynamide], for which, in data set [3] (setting [5]), the EC50 came out at 165 nM. Moreover, the F in data set [4] (gavage 2.5 mg/kg vs intravenous 0.5 mg/kg) was 43.39%. The Kp at 1 h in data set [4] (mouse, brain, single oral 2.5 mg/kg, 1 h) was found to be 1.1. Further, the Kp at 2 h in data set [4] (mouse, brain, single oral 2.5 mg/kg, 2 h) is 1.1. Also, the Kp at 4 h in data set [4] (mouse, brain, single oral 2.5 mg/kg, 4 h) worked out at 1.3. For the same molecule, the Kp at 8 h in data set [4] (mouse, brain, single oral 2.5 mg/kg, 8 h) is 1.1. Further, in data set [4] (mouse, intravenous 0.5 mg/kg), the AUC(0-inf) came out at 255 ng·h/mL, the AUC(0-t) came to 235 ng·h/mL, the Cmax amounted to 294 ng/mL and the half-life was 1.9 h. In data set [4] (mouse, po, gavage 2.5 mg/kg), the AUC(0-inf) amounted to 541 ng·h/mL, the AUC(0-t) came out at 510 ng·h/mL, the Cmax came out at 257 ng/mL and the Tmax was found to be 0.5 h. In addition, in data set [4] (mouse, po, gavage 2.5 mg/kg), the half-life was 1.95 h.

Turning to `Cc1cc2c(c(C)c1NC(=O)CCC1CCCC1)CCCCN2Cc1ccc(F)s1` [Compound A8, 3-cyclopentyl-N-(1-((5-fluorothiophene-2-yl)methyl)-6,8-dimethyl-2,3,4,5-tetrahydro-1H-benzazepine-7-yl)propionamide], in data set [3], the EC50 came to 48 nM. Besides, the Maximum tolerated dose entry in data set [2] was “MTD > 1 mg/kg”.

With `Cc1cc2c(c(C)c1NC(=O)CC(C)(C)C)CCCN2Cc1ccc(F)cc1` [Compound B1, reference compound], the MTD at 48 h in data set [1] was 0.06 to 0.3 mg/kg. In addition, in data set [2] (dose of 0.3 mg/kg), the “toxicity” value is “unacceptable toxicity”.

The molecule `Cc1cc2c(c(C)c1NC(=O)CC(C)(C)C)CCCCN2Cc1ccc(F)s1` [Compound A7, N-(1-((5-fluorothiophene-2-yl)methyl)-6,8-dimethyl-2,3,4,5-tetrahydro-1H-benzazepine-7-yl)-3,3-dimethylbutamide] had an EC50 in data set [3] of 16 nM. Further, the Maximum tolerated dose result in data set [2] is given as “MTD > 1 mg/kg”.

In general, MTD refers to the highest dose tested that stayed within the study's limit of toxicity. As usually defined, the EC50 is the concentration at which the effect is half-maximal. A word on the AUC(0-inf): it is total exposure, with the tail of the curve extrapolated. For orientation: AUC(0-t) means exposure summed from dosing to a finite time, without extrapolation to infinity. For orientation: Cmax means the maximum level reached in the sampled fluid or tissue. As a reminder, the half-life is the time in which the quantity being followed falls by half. One may read the Tmax as the time from dosing to the highest level. In general, Kp refers to the ratio of the level in a tissue or fluid to that in plasma or blood.
